Measurements reported in patent US20240174703A1, “THREE-COORDINATE AU(I) PROBES AND USE IN SELECTIVELY DISRUPTING MITOCHONDRIA IN CANCER CELLS” (University of Kentucky Research Foundation, priority 2021, published 2024).

What was measured:
[1] = tested on: MDA-MB-231; test: Cell viability (MTT assay) in TNBC cell line MDA-MB-231; format: cell-based; details: MDA-MB-231, MTT assay, 72 hours, mean ± s.e.m., n = 3
Protocol: Cell Culture. All cell lines were purchased from ATCC and routinely grown in a humidified incubator at 37° C. with 5-10% CO2. MDA-MB-468, MDA-MB-231, MDA-MB-175, MRCS, RPE-NEO, HCT116, and K562N were grown in DMEM supplemented with 10% FBS, 1% amphotericin and 1% penicillin/streptomycin. A2780 cells were grown in RPMI supplemented with 10% FBS, 1% amphotericin, and 1% penicillin/streptomycin, and 4 mM glutamine. All supplements along with PBS and trypsin-EDTA were purchased from Corning Inc. and used as is.
Cell Viability of AuTri-1-10 (Adherent Cell Lines). The cell viability of all 10 complexes were performed in MDA-MB-231. Additionally, AuTri-9 was evaluated in the following: MDA-MB-175, MA-MB-468, A2780, HCT116, OVCAR8 and MRCS. Cells were grown to confluency and trypsin was added to detach and harvest cells. The cells were washed with 2 mL of PBS and suspended in 10 mL of the appropriate media. The cells were centrifuged at 2000 rpm for 5 minutes and the pellet washed with 2 mL of PBS then suspended in 5 mL of the appropriate media. The cells were plated at a density of 2,000 cells/well in a 96-well clear bottom plate and allowed to adhere overnight at 37° C. with 5-10% CO2. The compounds were prepared as a stock in DMSO and used fresh. The compounds were added at seven concentrations (<1% DMSO) with a 3× serial dilution starting at 50 μM for the highest concentration and incubated at 37° C. for 72 h with 5-10% CO2. 1% DMSO were added to control wells as the vehicle control. The medium was removed and a solution of MTT (100 μL, prepared by dissolving MTT at 5 mg/mL and diluting by 10x with DMEM) was added to each well and incubated for 4 h at 37° C. with 5-10% CO2. The dye was removed from each well and 100 μL of DMSO was added to induce cell lysis. The plates were read using a Genios plate reader (λ=570 nm).

[2] = based on gold; cited from earlier work
[3] = tested on: MDA-MB-231; test: Transmission electron microscopy of mitochondrial morphology; format: cell-based; details: AuTri-9 10 μM for 1 h
Protocol: Transmission Electron Microscopy. MDA-MB-231 cells were seeded in 6 well plates and allowed to grow to 85% confluency. The cells were then treated with AuTri-9 at a concentration of 10 μM (<1% DMSO) for 1 h at 37° C. Growth media were removed and immediately and added 3% glutaraldehyde at 4° C. in 0.1 M Sorenson's or Cacodylate Buffer. After 5 minutes remove fix and replace with fresh fixative, leave for 45 min-1 hr at 4° C., washed in 0.1 M buffer w/5% sucrose 4×, 5 minutes each. Post fix, the cells were stained with 1% OsO4 in 0.1 M buffer for 1 hr at 4° C. and washed in 0.1 M buffer 1×. The cells were dehydrated in graded ethanols, 5 minutes each, from 50% through 100% and absolute ethanol (2×) at 4° C. After the last alcohol wash remove the residual alcohol with a small pipette and immediately add straight resin (14.5 g Eponate 12, 8.0 g DDSA, 7.15 g NMA, and 0.85 gm BDMA) to the dish. Swirl the dish and then remove as much of the resin, (which may contain residual alcohol), with a plastic pipette being careful not to disturb the cell layer. Then add straight resin 2× for 1-2 hours and place under the lamp, on a shaker. Pour off the 2nd straight resin wash, let the plate drain well (leaving a layer of resin on the bottom) and invert labeled beem capsules into each well that have had the conical ends removed. […]

Structure (SMILES) | IC50 [1] [µM] | further results
CC(=O)OC[C@H]1O[C@@H]([S-])[C@H](OC(C)=O)[C@@H](OC(C)=O)[C@@H]1OC(C)=O.CCP(CC)CC.[Au+] [Auranofin] | 1.31 ± 0.15 | MTD (maximum tolerated dose) [2]: 12 mg/kg
c1ccc(-c2ccccn2)nc1 [Bipyridine] | 17.5 ± 0.354 | 
[F][Sb-]([F])([F])([F])([F])[F].[Na+] [NaSbF6] | > 50 | 
c1ccc(-c2ccnc3c2ccc2c(-c4ccccc4)ccnc23)cc1 [Bathophenanthroline] | 7.48 ± 1.64 | 
Cc1ccnc2c1ccc1c(C)ccnc12 [4,7-dimethylphenanthroline] |  | IC50 ([1]; Homo sapiens): 14.1 ± 2.58 µM
N.N.[Cl][Pt][Cl] [Cisplatin] | 34.6 ± 0.783 | 
c1cnc2c(c1)ccc1cccnc12 [1,10-phenantrholine] |  | IC50 ([1]; Homo sapiens): 7.21 ± 1.68 µM
OO [H2O2, hydrogen peroxide] |  | mitochondrial morphology by TEM [3]: distinct cytoplasmic swelling and membrane rupture (white star) is observed; however, the mitochondria structure remains intact
CN[C@@H]1C[C@H]2O[C@@](C)([C@@H]1OC)n1c3ccccc3c3c4c(c5c6ccccc6n2c5c31)C(=O)NC4 [staurosporine] |  | mitochondrial morphology by TEM [3]: no distinct morphological changes to mitochondria
